Blank lines part the entries; values can stand above or below the compound they belong to.
How the values were obtained:
[1] = system: rBCL2 (RNA, G4) AGGGGGCCGUGGGGUGGGAGCUGGGG; assay: hemin-dependent self-biotinylation, StAv gel shift (indirect); settings: 20 mM KCl; 40 mM HEPES pH 8.0, 22°C; 5 uM hemin
[2] = system: CatG4 (DNA, G4) TGGGTAGGGCGGGTTGGGAAA; assay: as above; settings: 20 mM KCl; 40 mM HEPES pH 8.0, 22°C; 5 uM hemin
[3] = system: CatG4-ext2 / Comp-1 / ssDNA / Comp-3 GQ-duplex chimera (DNA, G4) TGGGTAGGGCGGGTTGGGAAATATTTTAGCTCACGAGACGCTCCCATAGTGACCTATAGTGAGTCGTATTAAAGTCCGGAGGACTGTCCTCCGGC/TCACTATGGGAGCGTCTCGTGAGCTAAA/CTTTAATACGACTCACTATAGG/GCCGGAGGACAGTCCTCCGGA; assay: as above; settings: 20 mM KCl, 26 mM MgCl2, 2.5 mM spermidine; QD buffer pH 8.0; 1 uM DNA, 5 uM hemin; ssDNA strand not biotinylated
[4] = system: MYC (DNA, G4) TGAGGGTGGGTAGGGTGGGTAA; assay: as above; settings: 20 mM KCl; 40 mM HEPES pH 8.0, 22°C; 5 uM hemin
[5] = system: SPB1 (DNA, G4) GGCGAGGAGGGGCGTGGCCGGC; assay: as above; settings: 20 mM KCl; 40 mM HEPES pH 8.0, 22°C; 5 uM hemin
[6] = system: hTELO (DNA, G4) GGTTAGGGTTAGGGTTAGGGTTAGGGTTAG; assay: as above; settings: 20 mM KCl; 40 mM HEPES pH 8.0, 22°C; 5 uM hemin
[7] = system: rNRAS (RNA, G4) AGGGAGGGGCGGGUCUGGG; assay: as above; settings: 20 mM KCl; 40 mM HEPES pH 8.0, 22°C; 5 uM hemin
[8] = system: TBA (DNA, G4) GGTTGGTGTGGTTGG; assay: as above; settings: 20 mM KCl; 40 mM HEPES pH 8.0, 22°C; 5 uM hemin
[9] = system: KIT2 (DNA, G4) CGGGCGGGCGCGAGGGAGGGG; assay: as above; settings: 20 mM KCl; 40 mM HEPES pH 8.0, 22°C; 5 uM hemin
[10] = system: CatG4-ext (DNA, G4) ACATAGCTGACTGGCTTGATTTTGGGTAGGGCGGGTTGGGAAATATCGAATTCTCAGCCTACACTGCAGTACTAGTACATATCA; assay: as above; settings: 20 mM KCl, 26 mM MgCl2, 2.5 mM spermidine; QD buffer pH 8.0, 22°C; 10 nM DNA, 5 uM hemin, 100 uM ssDNA or dsDNA competitor
[11] = system: KIT1 (DNA, G4) AGGGAGGGCGCTGGGAGGAGGG; assay: as above; settings: 20 mM KCl; 40 mM HEPES pH 8.0, 22°C; 5 uM hemin
[12] = system: CatG4-T7 / ssDNA duplex-GQ chimera (DNA, G4) TGGGTAGGGCGGGTTGGGAAATATCCTATAGTGAGTCGTATTAAAG/CTTTAATACGACTCACTATAGG; assay: as above; settings: 20 mM KCl, 26 mM MgCl2, 2.5 mM spermidine; QD buffer pH 8.0; 1 uM DNA, 5 uM hemin; CatG4-T7 strand 52%, ssDNA strand 3% biotinylated
[13] = system: CatG4-ext (DNA, G4) ACATAGCTGACTGGCTTGATTTTGGGTAGGGCGGGTTGGGAAATATCGAATTCTCAGCCTACACTGCAGTACTAGTACATATCA; assay: competition with hemin: StAv gel shift of self-biotinylation; settings: 20 mM KCl, 40 mM HEPES pH 8.0, 22°C, 5 uM hemin
[14] = 20 uM ligand lowers biotinylation 67% to 22-23%

binding [1]: yes
binding [2]: yes
binding [3]: yes
binding [4]: yes
binding [5]: weak
binding [6]: yes
binding [7]: yes
binding [8]: weak
binding [9]: yes
binding [10]: yes
binding [11]: yes
binding [12]: yes
SMILES: C=CC1=C(C)C2=Cc3c(C=C)c(C)c4[n]3[Fe]([Cl])[n]3c(c(C)c(CCC(=O)O)c3=CC3=NC(=C4)C(C)=C3CCC(=O)O)=CC1=N2

binding [13, 14]: yes
SMILES: CCc1c(C)c2cc3nc(cc4nc(cc5c(CC)c(C)c(cc1[nH]2)n5C)C(C)=C4CCC(=O)O)C(CCC(=O)O)=C3C

binding [13, 14]: yes
SMILES: CN(C)c1ccc(Nc2c3ccc(NC(=O)CCN4CCCC4)cc3nc3cc(NC(=O)CCN4CCCC4)ccc23)cc1

binding ([13]; 20 uM ligand lowers biotinylation 67% to 1%): yes
SMILES: NCCOc1cc(C(=O)Nc2cc(OCCN)c3ccccc3n2)nc(C(=O)Nc2cc(OCCN)c3ccccc3n2)c1
